Here are results for one compound from patent US20210156844A1, “TMEM16A Modulation for Diagnostic or Therapeutic Use in Pulmonary Hypertension (PH)” (Bayer Aktiengesellschaft, priority 2017, published 2021).

One data set deals with hypoxia-exposed mice. Nature of the data set: Acute hemodynamic effects of benzbromarone in hypoxia-exposed mice. The data set is classed as in vivo, mouse. To be noted: single i.v. bolus of 300 μM. An excerpt: The experimental protocol is depicted in FIG. 12A. Male C57BL/6J mice (Charles River) at the age of 10 weeks were either placed into a hypoxic chamber (FiO2=0.1, n=16) for 4 weeks, or kept at normoxic conditions (control group, FiO2=0.21, n=8). According to the reports of Fagan et al. (Fagan, K A, et al. Am. J. Physiol. Lung Cell. Mol. Physiol. (2004) 287, L656-664) and Tuscherer et al. (Tuchscherer, H A, et al., J. Biomech. (2007) 40, 993-1001), a significant increase in the right ventricular systolic pressure (RVSP) and PA muscularization can be observed already after 14 days of hypoxia exposure. Therefore, mice subjected to hypoxia were randomized into two groups at the end of the second week. […]
In mice, in vivo hemodynamics was performed under constant inhalation of 2% isoflurane/oxygen, using the closed chest technique through a small incision on the submandibular area. Body temperature was monitored and maintained at 37±1° C. A limb-lead ECG was recorded and the heart rate was kept constant to avoid changes in the sympathetic tone during the experiment. The right ventricle (RV) was catheterized via the right jugular vein using a 1.4 F Millar catheter (SPR-671, Millar, Houston Tex., USA) and right ventricular systolic pressure (RVSP) was measured continuously. […]

The test system of data set [1] is patients with severe IPAH. Nature of the data set: Hemodynamic effect of a single oral dose of benzbromarone in IPAH patients. Format: in vivo, human. To be noted: 200 mg orally. How it is done: All patients provided a written informed consent to participate in the study. Examinations were performed by the same experienced team. For the right heart catheterizations, a 7F quadriple-lumen, balloon-tipped, flow-directed Swan-Ganz catheter (Baxter, Deerfield, Ill.) was introduced using the transjugular approach. Hemodynamic measurements included systolic, diastolic and mean pulmonary arterial pressure, pulmonary arterial wedge pressure, right atrial pressure, and cardiac output measured by the thermodilution technique and calculated using an analog computer system. Pulmonary vascular resistance was derived from the difference of mean pulmonary arterial pressure and pulmonary arterial wedge pressure divided by cardiac output. Cardiac index was determined as the ratio of cardiac output to body surface area. All measurements were performed in the supine position, pressure values were continuously recorded and averaged over several respiratory cycles during spontaneous breathing. […] Partial pressure of oxygen and oxygen saturation of arterialized ear lobe capillary blood and pulmonary arterial blood were determined with an ABL 800 Flex (Radiometer; Copenhagen, Denmark) blood gas analyzer. Systemic blood pressure was measured by a sphygmomanometer.

The mark [2] stands for this setting: after 120 min, 10 patients, no placebo group.

As for `CCc1oc2ccccc2c1C(=O)c1cc(Br)c(O)c(Br)c1` [benzbromarone, (2-Ethyl-3-benzofuranyl)-(3,5-dibrom-4-hydroxyphenyl)ketone], in the data set on hypoxia-exposed mice (mice exposed to 4 weeks of hypoxia), the RVSP result was “significant decrease”. For the same compound, the “RVSP in the control animals” value in the data set on hypoxia-exposed mice (normoxia control mice) is recorded as “without affecting”. Also, the “further changes in the pulmonary or systemic hemodynamics” value in data set [1] was “no further changes”. Also, in data set [1] (setting [2]), the PVR entry is given as “slight increase” and the mPAP result is on record as “slight increase”. Further, the clinical adverse effects entry in data set [1] (throughout the study) is “No clinical adverse effects”.
